From patent US20260070899A1, “N-(2-(4-CYANOTHIAZOLIDIN-3-YL)-2-OXOETHYL)-QUINOLINE-4-CARBOXAMIDES” (AstraZeneca AB, priority 2022, published 2026)

How the values were obtained:
[1] = Metabolic stability in human liver microsomes (HLM); assay type: in vitro ADME; settings: n = 1 or average (n = 2-3)
Protocol: Metabolic stability in HLM was measured as described in J Comput Aided Mol Des 2015, 29, 795.

Rat Hepatocytes (rHep) = test: Metabolic stability in rat hepatocytes (rHep); assay type: in vitro ADME; settings: n = 1 or geometric mean (n = 2-3)
Protocol: Metabolic stability in rat hepatocytes was measured as described in J Comput Aided Mol Des 2015, 29, 795.

[2] = Caco-2 AB intrinsic permeability; assay type: in vitro ADME; settings: human, A to B intrinsic, n = 1 or average (n = 2), read-out: Caco2 AB Intrinsic Papp
Protocol: Caco-2 cell permeability was measured as described in Mol Pharm 2017, 14, 1601.

Kinetic solubility = assay type: physicochemical; settings: kinetic from dmso stock, n = 1 or average (n = 2-4)
Protocol: Kinetic solubility was measured as described in Comput Aided Mol Des 2015, 29, 795.

hFAP (M39-A757) = target: T1, hFAP (M39-A757) (Homo sapiens, UniProt Q12884); test: biochemical;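 note: surface plasmon resonance direct binding to hFAP amine-coupled on a sensor chip, rising compound concentrations by single cycle kinetics, Kd from global fit of interaction models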
T1 sequence (Q12884 39-757): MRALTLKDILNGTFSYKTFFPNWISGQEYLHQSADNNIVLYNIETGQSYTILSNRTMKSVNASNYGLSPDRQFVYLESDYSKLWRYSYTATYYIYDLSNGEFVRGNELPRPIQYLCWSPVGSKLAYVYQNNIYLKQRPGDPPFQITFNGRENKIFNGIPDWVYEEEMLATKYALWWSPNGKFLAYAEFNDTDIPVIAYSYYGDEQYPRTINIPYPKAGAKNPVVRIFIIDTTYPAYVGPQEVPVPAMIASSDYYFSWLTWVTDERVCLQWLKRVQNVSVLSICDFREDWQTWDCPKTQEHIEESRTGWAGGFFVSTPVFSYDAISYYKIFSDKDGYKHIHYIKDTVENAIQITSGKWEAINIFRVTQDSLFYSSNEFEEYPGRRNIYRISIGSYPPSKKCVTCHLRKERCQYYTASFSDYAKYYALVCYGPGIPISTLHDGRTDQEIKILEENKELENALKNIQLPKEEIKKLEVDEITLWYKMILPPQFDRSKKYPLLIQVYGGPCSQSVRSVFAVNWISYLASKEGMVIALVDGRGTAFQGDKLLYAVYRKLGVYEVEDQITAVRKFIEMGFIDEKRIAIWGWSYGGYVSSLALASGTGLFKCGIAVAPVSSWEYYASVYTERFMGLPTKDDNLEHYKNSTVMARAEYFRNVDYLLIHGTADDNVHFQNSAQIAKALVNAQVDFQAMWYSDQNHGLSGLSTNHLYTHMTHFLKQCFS

[3] = target: T2, Prolyl endopeptidase, Prolyl Oligopeptidase (hPREP) (Homo sapiens, UniProt P48147); test: biochemical
T2 sequence (P48147 1-710): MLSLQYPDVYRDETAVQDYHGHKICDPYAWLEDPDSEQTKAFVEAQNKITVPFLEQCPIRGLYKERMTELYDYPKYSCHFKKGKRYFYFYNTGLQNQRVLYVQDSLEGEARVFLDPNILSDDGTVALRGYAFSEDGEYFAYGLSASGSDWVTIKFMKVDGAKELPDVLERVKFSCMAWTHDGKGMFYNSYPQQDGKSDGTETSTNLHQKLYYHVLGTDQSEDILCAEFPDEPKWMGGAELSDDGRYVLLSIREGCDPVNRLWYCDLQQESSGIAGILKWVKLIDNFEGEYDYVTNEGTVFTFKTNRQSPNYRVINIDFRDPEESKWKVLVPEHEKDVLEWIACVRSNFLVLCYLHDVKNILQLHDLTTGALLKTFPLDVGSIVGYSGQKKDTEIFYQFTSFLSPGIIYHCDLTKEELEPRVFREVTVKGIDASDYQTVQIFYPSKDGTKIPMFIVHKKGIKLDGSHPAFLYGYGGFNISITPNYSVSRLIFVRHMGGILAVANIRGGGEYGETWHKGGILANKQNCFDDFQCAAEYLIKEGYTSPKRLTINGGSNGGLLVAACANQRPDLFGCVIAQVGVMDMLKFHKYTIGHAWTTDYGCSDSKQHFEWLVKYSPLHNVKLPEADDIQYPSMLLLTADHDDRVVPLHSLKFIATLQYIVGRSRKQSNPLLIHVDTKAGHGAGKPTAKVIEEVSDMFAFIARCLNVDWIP

[4] = target: T3, human dipeptidylpeptidase 7 (hDPP7) (Homo sapiens, UniProt Q9UHL4); test: hDPP7 inhibition assay; assay type: biochemical; settings: hDPP7 15 nM, Ala-Pro-amino-methylcoumarin 5 μM; n = 1
T3 construct: purchased BPS Bioscience 80070
Protocol: Compounds were tested in a biochemical inhibition assay using human dipeptidylpeptidase 7 (hDPP7) enzyme at 15 nM FAC (BPS Bioscience, #80070) and the substrate Ala-Pro-amino-methylcoumarin (BPS Bioscience, #80305) at 5 μM FAC. The enzymatic reactions were conducted in duplicate at rt for 30 min in 50 μL DPP assay buffer (BPS Bioscience, #80300). Compound solutions (in DMSO) at 10 CR, 3 fold dilution series were prepared in assay buffer ten-fold higher than the final concentration, and 5 μL of the dilution was added to a 50 μL reaction so that the highest compound concentration was 100 μM FAC and the concentration of DMSO was 1% in all wells. The plates were read on a Tecan Infinite M1000 microplate reader with excitation 340 nm and emission 460 nm. Data were analyzed in Graph Pad Prism. […] Raw data signals were normalized using 1% DMSO as 0% control and no enzyme as 100% inhibitor control.

[5] = target: T4, human dipeptidylpeptidase 8 (hDPP8) (Homo sapiens, UniProt Q6V1X1); test: hDPP8 inhibition assay; assay type: biochemical; settings: hDPP8 1.5 nM, Ala-Pro-amino-methylcoumarin 5 μM; n = 1
T4 construct: purchased BPS Bioscience 80080
T4 sequence (Q6V1X1 whole entry): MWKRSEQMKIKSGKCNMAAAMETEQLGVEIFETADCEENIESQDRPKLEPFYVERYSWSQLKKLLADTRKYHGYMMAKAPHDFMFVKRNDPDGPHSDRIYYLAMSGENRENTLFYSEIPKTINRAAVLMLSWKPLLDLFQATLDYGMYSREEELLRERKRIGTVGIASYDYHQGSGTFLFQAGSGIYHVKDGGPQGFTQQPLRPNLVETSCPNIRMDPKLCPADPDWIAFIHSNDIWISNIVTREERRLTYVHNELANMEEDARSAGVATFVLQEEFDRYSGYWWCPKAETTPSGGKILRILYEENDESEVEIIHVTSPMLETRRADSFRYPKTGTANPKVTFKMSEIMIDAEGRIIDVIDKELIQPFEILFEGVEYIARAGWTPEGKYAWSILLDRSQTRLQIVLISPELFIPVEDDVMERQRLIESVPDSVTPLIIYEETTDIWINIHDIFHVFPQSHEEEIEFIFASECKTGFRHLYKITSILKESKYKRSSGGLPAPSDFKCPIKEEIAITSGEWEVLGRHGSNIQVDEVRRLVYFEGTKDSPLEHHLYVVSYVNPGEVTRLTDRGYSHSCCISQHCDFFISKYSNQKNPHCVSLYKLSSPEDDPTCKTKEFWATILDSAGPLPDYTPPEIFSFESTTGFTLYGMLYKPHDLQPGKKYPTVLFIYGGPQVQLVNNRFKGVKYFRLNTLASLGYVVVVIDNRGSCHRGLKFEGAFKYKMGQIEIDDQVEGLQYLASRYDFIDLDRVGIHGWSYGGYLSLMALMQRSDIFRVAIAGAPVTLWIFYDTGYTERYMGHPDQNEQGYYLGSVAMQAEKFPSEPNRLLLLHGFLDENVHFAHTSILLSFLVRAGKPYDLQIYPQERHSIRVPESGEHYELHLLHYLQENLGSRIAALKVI
Protocol: (§1) Compounds were tested in a biochemical inhibition assay using human dipeptidylpeptidase 8 (hDPP8) enzyme at 1.5 nM FAC (BPS Bioscience, #80080) and the substrate Ala-Pro-amino-methylcoumarin (BPS Bioscience #80305) at 5 μM FAC. The enzymatic reactions were conducted in duplicate at rt for 30 min in 50 μL DPP assay buffer (BPS Bioscience, #80300). Compound solutions (in DMSO) at 10 CR, 3 fold dilution series were prepared in assay buffer ten-fold higher than the final concentration, and 5 μL of the dilution was added to a 50 μL reaction so that the highest compound concentration was 100 μM FAC and the concentration of DMSO was 1% in all wells. The plates were read on a Tecan Infinite M1000 microplate reader with excitation 340 nm and emission 460 nm. Data were analyzed in Graph Pad Prism. […] Raw data signals were normalized using 1% DMSO as 0% control and no enzyme as 100% inhibitor control.

[6] = target: T5, human dipeptidylpeptidase 9 (hDPP9) (Homo sapiens, UniProt Q86TI2); test: hDPP9 inhibition assay; assay type: biochemical; settings: hDPP9 0.4 nM, Ala-Pro-amino-methylcoumarin 5 μM; n = 1
T5 construct: purchased BPS Bioscience 80090
T5 sequence (Q86TI2 whole entry): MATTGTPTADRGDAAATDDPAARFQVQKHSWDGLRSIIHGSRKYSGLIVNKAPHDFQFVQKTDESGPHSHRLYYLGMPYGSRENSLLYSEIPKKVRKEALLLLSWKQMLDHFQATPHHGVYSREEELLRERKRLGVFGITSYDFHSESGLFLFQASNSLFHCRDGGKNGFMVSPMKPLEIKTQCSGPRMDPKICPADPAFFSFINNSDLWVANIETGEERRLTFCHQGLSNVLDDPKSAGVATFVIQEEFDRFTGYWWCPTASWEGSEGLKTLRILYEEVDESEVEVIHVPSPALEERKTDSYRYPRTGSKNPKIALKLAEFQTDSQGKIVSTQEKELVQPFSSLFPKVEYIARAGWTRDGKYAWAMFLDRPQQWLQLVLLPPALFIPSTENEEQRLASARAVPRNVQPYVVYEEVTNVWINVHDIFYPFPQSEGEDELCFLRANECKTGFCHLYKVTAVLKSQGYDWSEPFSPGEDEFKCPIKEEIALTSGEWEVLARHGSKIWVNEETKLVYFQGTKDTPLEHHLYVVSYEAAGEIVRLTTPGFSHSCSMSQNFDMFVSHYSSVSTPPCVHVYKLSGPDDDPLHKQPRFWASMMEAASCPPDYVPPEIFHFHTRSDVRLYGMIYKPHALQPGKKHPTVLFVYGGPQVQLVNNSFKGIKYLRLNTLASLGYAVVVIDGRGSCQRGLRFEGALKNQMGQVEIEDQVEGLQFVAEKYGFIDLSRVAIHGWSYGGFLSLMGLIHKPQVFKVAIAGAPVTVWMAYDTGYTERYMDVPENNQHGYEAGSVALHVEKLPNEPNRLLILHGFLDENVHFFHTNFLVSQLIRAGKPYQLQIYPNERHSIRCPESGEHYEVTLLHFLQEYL
Protocol: as §1, with “9 (hDPP9)” for “8 (hDPP8)”, “0.4” for “1.5”, “#80090)” for “#80080)”

SMILES	microsomal CLint [1]	rHeps CLint (Rat Hepatocytes (rHep))	Papp A→B [2]	solubility (Kinetic solubility)	Kd (hFAP (M39-A757))	IC50 [3]	IC50 [4]	IC50 [5]	IC50 [6]
COCCOc1ccc2nccc(C(=O)NCC(=O)N3CSC[C@H]3C#N)c2c1 [Example 4, (R)—N-(2-(4-Cyanothiazolidin-3-yl)-2-oxoethyl)-6-(2-methoxyethoxy)quinoline-4-carboxamide]	< 3 µL/min/mg	<1 μL/min/1E6	10 ×10⁻⁶ cm/s	> 1000 µM	0.057 nM	570 nM	–	–	–
N#C[C@@H]1CSCN1C(=O)CNC(=O)c1ccnc2ccc(OC3CCOCC3)cc12 [Example 6, (R)—N-(2-(4-Cyanothiazolidin-3-yl)-2-oxoethyl)-6-((tetrahydro-2H-pyran-4-yl)oxy)quinoline-4-carboxamide]	–	–	–	–	–	1200 nM	> 100 µM	6.4 µM	2900 nM
